Assay results as given in ChEMBL document CHEMBL4308841, “Synthesis, in vitro antiproliferative activity, and kinase inhibitory effects of pyrazole-containing diarylureas and diarylamides” (Eur J Med Chem, 2018).

How the values were obtained:
[1] = system: NCI-H23; assay: Growth inhibition of human NCI-H23 cells assessed as cell growth at 0.1 uM incubated for 48 hrs by sulforhodamine B assay relative to control; type: functional; conditions: NCI-H23, 48 h, read-out: Activity
[2] = system: A498; assay: Growth inhibition of human A498 cells assessed as cell growth at 100 uM incubated for 48 hrs by sulforhodamine B assay relative to control; type: functional; conditions: A498, 48 h, read-out: Activity
[3] = system: SNB-75; assay: Growth inhibition of human SNB75 cells assessed as cell growth at 0.01 uM incubated for 48 hrs by sulforhodamine B assay relative to control; type: functional; conditions: SNB-75, 48 h, read-out: Activity
[4] = system: RPMI-8226; assay: Growth inhibition of human RPMI8226 cells assessed as cell growth at 100 uM incubated for 48 hrs by sulforhodamine B assay relative to control; type: functional; conditions: RPMI-8226, 48 h, read-out: Activity
[5] = system: SF-268; assay: Growth inhibition of human SF268 cells incubated for 48 hrs by sulforhodamine B assay; type: functional, cell-based; conditions: SF-268, 48 h
[6] = system: SR; assay: Growth inhibition of human SR cells assessed as cell growth at 100 uM incubated for 48 hrs by sulforhodamine B assay relative to control; type: functional; conditions: read-out: Activity
[7] = system: CAKI-1; assay: Growth inhibition of human Caki1 cells incubated for 48 hrs by sulforhodamine B assay; type: functional, cell-based; conditions: CAKI-1, 48 h
[8] = system: DU-145; assay: Growth inhibition of human DU145 cells incubated for 48 hrs by sulforhodamine B assay; type: functional, cell-based; conditions: DU-145, 48 h
[9] = system: RXF 393; assay: Growth inhibition of human RXF393 cells assessed as cell growth at 1 uM incubated for 48 hrs by sulforhodamine B assay relative to control; type: functional; conditions: RXF 393, 48 h, read-out: Activity
[10] = system: PC-3; assay: Growth inhibition of human PC3 cells assessed as cell growth at 100 uM incubated for 48 hrs by sulforhodamine B assay relative to control; type: functional; conditions: PC-3, 48 h, read-out: Activity
[11] = system: SK-MEL-5; assay: Growth inhibition of human SK-MEL-5 cells assessed as cell growth at 0.01 uM incubated for 48 hrs by sulforhodamine B assay relative to control; type: functional; conditions: SK-MEL-5, 48 h, read-out: Activity
[12] = system: OVCAR-8; assay: Growth inhibition of human OVCAR8 cells assessed as cell growth at 0.1 uM incubated for 48 hrs by sulforhodamine B assay relative to control; type: functional; conditions: OVCAR-8, 48 h, read-out: Activity
[13] = system: OVCAR-4; assay: Growth inhibition of human OVCAR4 cells assessed as cell growth at 1 uM incubated for 48 hrs by sulforhodamine B assay relative to control; type: functional; conditions: OVCAR-4, 48 h, read-out: Activity
[14] = system: MDA-MB-468; assay: Growth inhibition of human MDA-MB-468 cells assessed as cell growth at 0.01 uM incubated for 48 hrs by sulforhodamine B assay relative to control; type: functional; conditions: MDA-MB-468, 48 h, read-out: Activity
[15] = system: SNB-19; assay: Growth inhibition of human SNB19 cells assessed as cell growth at 1 uM incubated for 48 hrs by sulforhodamine B assay relative to control; type: functional; conditions: SNB-19, 48 h, read-out: Activity
[16] = system: KM12; assay: Growth inhibition of human KM12 cells incubated for 48 hrs by sulforhodamine B assay; type: functional, cell-based; conditions: KM12, 48 h
[17] = system: UACC-62; assay: Growth inhibition of human UACC62 cells incubated for 48 hrs by sulforhodamine B assay; type: functional, cell-based; conditions: UACC-62, 48 h
[18] = system: SK-MEL-28; assay: Growth inhibition of human SK-MEL-28 cells assessed as cell growth at 0.1 uM incubated for 48 hrs by sulforhodamine B assay relative to control; type: functional; conditions: SK-MEL-28, 48 h, read-out: Activity
[19] = system: ACHN; assay: Growth inhibition of human ACHN cells incubated for 48 hrs by sulforhodamine B assay; type: functional, cell-based
[20] = system: NCI-H226; assay: Growth inhibition of human NCI-H226 cells incubated for 48 hrs by sulforhodamine B assay; type: functional, cell-based; conditions: NCI-H226, 48 h
[21] = system: HCT-116; assay: Growth inhibition of human HCT116 cells incubated for 48 hrs by sulforhodamine B assay; type: functional, cell-based; conditions: HCT-116, 48 h
[22] = system: NCI-H226; assay: Growth inhibition of human NCI-H226 cells assessed as cell growth at 0.1 uM incubated for 48 hrs by sulforhodamine B assay relative to control; type: functional; conditions: NCI-H226, 48 h, read-out: Activity
[23] = system: UACC-62; assay: Growth inhibition of human UACC62 cells assessed as cell growth at 100 uM incubated for 48 hrs by sulforhodamine B assay relative to control; type: functional; conditions: UACC-62, 48 h, read-out: Activity
[24] = system: UACC-62; assay: Growth inhibition of human UACC62 cells assessed as cell growth at 1 uM incubated for 48 hrs by sulforhodamine B assay relative to control; type: functional; conditions: UACC-62, 48 h, read-out: Activity
[25] = system: U-251; assay: Growth inhibition of human U251 cells assessed as cell growth at 0.1 uM incubated for 48 hrs by sulforhodamine B assay relative to control; type: functional; conditions: U-251, 48 h, read-out: Activity
[26] = system: SN12C; assay: Growth inhibition of human SN12C cells assessed as cell growth at 1 uM incubated for 48 hrs by sulforhodamine B assay relative to control; type: functional; conditions: read-out: Activity
[27] = system: KM12; assay: Growth inhibition of human KM12 cells assessed as cell growth at 100 uM incubated for 48 hrs by sulforhodamine B assay relative to control; type: functional; conditions: KM12, 48 h, read-out: Activity
[28] = system: NCI-H23; assay: Growth inhibition of human NCI-H23 cells assessed as cell growth at 0.01 uM incubated for 48 hrs by sulforhodamine B assay relative to control; type: functional; conditions: NCI-H23, 48 h, read-out: Activity
[29] = read-out: LC50 (the source's name)
[30] = read-out: pLC50 (the source's name) (converted)

SMILES: COc1cc(Cl)cc(-c2nn(-c3cccc(NC(=O)Nc4ccc(Cl)c(C(F)(F)F)c4)c3)cc2-c2ccncc2)c1
- growth at 0.1 µM [1]: 90%
- growth at 100 µM [2]: -70%
- growth at 0.01 µM [3]: 57%
- growth at 100 µM [4]: -32%
- GI50 ([5]; read-out: GI50): 2.55 µM
- CC50 [5, 29]: 7.96 µM
- TGI ([5]; read-out: TGI): 12.1 µM
- GI50 ([5]; read-out: pGI50 (converted)): 2.63 µM
- CC50 [5, 30]: 79.4 µM
- TGI ([5]; read-out: pTGI (converted)): 12 µM
- growth at 100 µM [6]: -30%
- GI50 ([7]; read-out: GI50): 0.615 µM
- CC50 [7, 29]: > 100 µM
- TGI ([7]; read-out: TGI): 94.3 µM
- GI50 ([7]; read-out: pGI50 (converted)): 0.813 µM
- CC50 [7, 30]: > 100 µM
- TGI ([7]; read-out: pTGI (converted)): 10.2 µM
- GI50 ([8]; read-out: GI50): 1.55 µM
- CC50 [8, 29]: 55.2 µM
- TGI ([8]; read-out: TGI): 14 µM
- GI50 ([8]; read-out: pGI50 (converted)): 1.86 µM
- CC50 [8, 30]: 56.2 µM
- TGI ([8]; read-out: pTGI (converted)): 14.1 µM
- growth at 1 µM [9]: 78%
- growth at 100 µM [10]: -15%
- growth at 0.01 µM [11]: 96%
- growth at 0.1 µM [12]: 96%
- growth at 1 µM [13]: 62%
- growth at 0.01 µM [14]: 92%
- growth at 1 µM [15]: 87%
- GI50 ([16]; read-out: GI50): 0.555 µM
- CC50 [16, 29]: 4 µM
- TGI ([16]; read-out: TGI): 44.4 µM
- GI50 ([16]; read-out: pGI50 (converted)): 0.55 µM
- CC50 [16, 30]: 40.7 µM
- TGI ([16]; read-out: pTGI (converted)): 4.47 µM
- IC50 [17]: 1.27 µM
- GI50 ([17]; read-out: GI50): 1.27 µM
- CC50 [17, 29]: 9.51 µM
- TGI ([17]; read-out: TGI): 35.4 µM
- GI50 ([17]; read-out: pGI50 (converted)): 1.29 µM
- CC50 [17, 30]: 9.77 µM
- TGI ([17]; read-out: pTGI (converted)): 4.9 µM
- growth at 0.1 µM [18]: 106%
- GI50 ([19]; read-out: GI50): 0.752 µM
- CC50 [19, 29]: > 100 µM
- TGI ([19]; read-out: TGI): 10.2 µM
- GI50 ([19]; read-out: pGI50 (converted)): 0.759 µM
- CC50 [19, 30]: > 100 µM
- TGI ([19]; read-out: pTGI (converted)): 14.5 µM
- GI50 ([20]; read-out: GI50): 2.5 µM
- LC50 ([20]; read-out: LC50): > 100 µM
- TGI ([20]; read-out: TGI): 14.7 µM
- GI50 ([20]; read-out: pGI50 (converted)): 2.51 µM
- LC50 ([20]; read-out: pLC50 (converted)): > 100 µM
- TGI ([20]; read-out: pTGI (converted)): 14.8 µM
- IC50 [21]: 0.63 µM
- GI50 ([21]; read-out: GI50): 0.631 µM
- CC50 [21, 29]: 7.3 µM
- TGI ([21]; read-out: TGI): 23.6 µM
- GI50 ([21]; read-out: pGI50 (converted)): 0.631 µM
- CC50 [21, 30]: 7.24 µM
- TGI ([21]; read-out: pTGI (converted)): 2.34 µM
- growth at 0.1 µM [22]: 96%
- growth at 100 µM [23]: -85%
- growth at 1 µM [24]: 82%
- growth at 0.1 µM [25]: 92%
- growth at 1 µM [26]: 63%
- growth at 100 µM [27]: -70%
- growth at 0.01 µM [28]: 90%
